Data as given in PMC7438494 (Communications Biology, 2020).
“And” between values parts separate entries of the source, which are not always exact repeats. Identical values can stand only once. Like-named read-outs stand apart in the source and are kept apart here.

Target: human ATP synthase (Homo sapiens, UniProt P00846+P05496)
Test: biochemical
Assay type: biochemical
[1] = BDQ 0.65 uM, […], frozen human mito, BDQ in DMSO
[2] = BDQ 0.65 uM, cyanide sensitive, 60 min, frozen human mito, BDQ in DMSO
[3] = BDQ 1 uM, […], frozen human mito, BDQ in DMSO
[4] = BDQ 1 uM, cyanide sensitive, human
[5] = BDQ 2 uM, […], frozen human mito, BDQ in DMSO
[6] = BDQ 5 uM, […], frozen human mito, BDQ in DMSO
[7] = BDQ 5 uM, cyanide sensitive, human
[8] = BDQ 10 uM, […], frozen human mito, BDQ in DMSO
[9] = BDQ 10 uM, cyanide sensitive, human
[10] = Human Mito, 1st exp (12-14-18), Bedaquiline 0.05 μM, 60 min
[11] = Human Mito, 2nd exp (12-17-18), Bedaquiline 0.05 μM, 60 min

COc1nc2ccc(Br)cc2cc1[C@@H](c1ccccc1)[C@@](O)(CCN(C)C)c1cccc2ccccc12 [BDQ, Bedaquiline]
cyanide sensitive % inhibition (BDQ 0.5 uM, cyanide sensitive, human): 66.6% and 70.0% and 42.0% and 48.8% and 35.1%
% activity [1]: 30.2506%
% inhibition [1]: 69.7494%
ATP produced, nmol/min/mg [1]: 2.55 nmol/min/mg
ATP produced, pmol/min/mg [1]: 2547.17 pmol/min/mg
activity at 0.65 µM (BDQ 0.65 uM, […], frozen human mito, BDQ in DMSO, read-out: % activity): 30.3%
activity at 0.65 µM (BDQ 0.65 uM, […], frozen human mito, BDQ in DMSO, read-out: % activity, cyanide sensitive): 18.5%
inhibition at 0.65 µM (BDQ 0.65 uM, […], frozen human mito, BDQ in DMSO, read-out: % inhibition): 69.7%
inhibition at 0.65 µM (BDQ 0.65 uM, […], frozen human mito, BDQ in DMSO, read-out: % inhibition, cyanide sensitive): 81.5%
cyanide sensitive ATP produced, nmol/min/mg [2]: 1.33 nmol/min/mg
cyanide sensitive ATP produced, pmol/min/mg [2]: 1329.08 pmol/min/mg
cyanide sensitive % inhibition (BDQ 0.85 uM, cyanide sensitive, human): 67.5% and 100.0% and 66.9%
% activity [3]: 17.1322%
% activity, cyanide sensitive [3]: 3.117%
% inhibition [3]: 82.8678%
ATP produced, nmol/min/mg [3]: 1.44 nmol/min/mg
ATP produced, pmol/min/mg [3]: 1442.57 pmol/min/mg
activity at 1 µM (BDQ 1 uM, […], frozen human mito, BDQ in DMSO, read-out: % activity): 17.1%
inhibition at 1 µM (BDQ 1 uM, […], frozen human mito, BDQ in DMSO, read-out: % inhibition): 82.9%
inhibition at 1 µM (BDQ 1 uM, […], frozen human mito, BDQ in DMSO, read-out: % inhibition, cyanide sensitive): 96.9%
cyanide sensitive ATP produced, pmol/min/mg (BDQ 1 uM, cyanide sensitive, 60 min, frozen human mito, BDQ in DMSO): 224.48 pmol/min/mg
cyanide sensitive % activity [4]: -0.8% and 8.7% and -0.171%
cyanide sensitive % inhibition [4]: 91.3% and 100.2%
inhibition at 1 µM (BDQ 1 uM, cyanide sensitive, human, read-out: cyanide sensitive % inhibition): 101%
% activity [5]: 12.0221%
% inhibition [5]: 87.9779%
ATP produced, nmol/min/mg [5]: 1.01 nmol/min/mg
ATP produced, pmol/min/mg [5]: 1012.29 pmol/min/mg
activity at 2 µM (BDQ 2 uM, […], frozen human mito, BDQ in DMSO, read-out: % activity): 12%
activity at 2 µM (BDQ 2 uM, […], frozen human mito, BDQ in DMSO, read-out: % activity, cyanide sensitive): -2.86%
inhibition at 2 µM (BDQ 2 uM, […], frozen human mito, BDQ in DMSO, read-out: % inhibition): 88%
inhibition at 2 µM (BDQ 2 uM, […], frozen human mito, BDQ in DMSO, read-out: % inhibition, cyanide sensitive): 103%
cyanide sensitive ATP produced, pmol/min/mg (BDQ 2 uM, cyanide sensitive, 60 min, frozen human mito, BDQ in DMSO): -205.80 pmol/min/mg
cyanide sensitive % inhibition (BDQ 2 uM, cyanide sensitive, human): 98.3% and 117.8% and 98.9% and 97.2% and 102.7%
% activity [6]: 17.1136%
% activity, cyanide sensitive [6]: 3.095%
% inhibition [6]: 82.8864%
ATP produced, nmol/min/mg [6]: 1.44 nmol/min/mg
ATP produced, pmol/min/mg [6]: 1441.00 pmol/min/mg
activity at 5 µM (BDQ 5 uM, […], frozen human mito, BDQ in DMSO, read-out: % activity): 17.1%
inhibition at 5 µM (BDQ 5 uM, […], frozen human mito, BDQ in DMSO, read-out: % inhibition): 82.9%
inhibition at 5 µM (BDQ 5 uM, […], frozen human mito, BDQ in DMSO, read-out: % inhibition, cyanide sensitive): 96.9%
cyanide sensitive ATP produced, pmol/min/mg (BDQ 5 uM, cyanide sensitive, 60 min, frozen human mito, BDQ in DMSO): 222.91 pmol/min/mg
cyanide sensitive % activity [7]: -7.0% and -10.1% and -4.1% and -2.6% and -5.6%
cyanide sensitive % inhibition [7]: 107.0% and 110.1% and 102.6% and 105.6%
inhibition at 5 µM (BDQ 5 uM, cyanide sensitive, human, read-out: cyanide sensitive % inhibition): 104%
% activity [8]: 14.9815%
% activity, cyanide sensitive [8]: 0.6024%
% inhibition [8]: 85.0185%
ATP produced, nmol/min/mg [8]: 1.26 nmol/min/mg
ATP produced, pmol/min/mg [8]: 1261.47 pmol/min/mg
activity at 10 µM (BDQ 10 uM, […], frozen human mito, BDQ in DMSO, read-out: % activity): 15%
inhibition at 10 µM (BDQ 10 uM, […], frozen human mito, BDQ in DMSO, read-out: % inhibition): 85%
inhibition at 10 µM (BDQ 10 uM, […], frozen human mito, BDQ in DMSO, read-out: % inhibition, cyanide sensitive): 99.4%
cyanide sensitive ATP produced, pmol/min/mg (BDQ 10 uM, cyanide sensitive, 60 min, frozen human mito, BDQ in DMSO): 43.39 pmol/min/mg
cyanide sensitive % activity [9]: -1.4%
cyanide sensitive % inhibition [9]: 101.4%
inhibition at 10 µM (BDQ 10 uM, cyanide sensitive, human, read-out: cyanide sensitive % inhibition): 102%
Cyanide sensitive [10]: 4.658 nmol/min/mg
activity at 0.05 µM [10]: 64.1%
Cyanide sensitive (Human Mito, 1st exp (12-14-18), Bedaquiline 0.1 μM, 60 min): 6.127 nmol/min/mg
activity at 0.1 µM (Human Mito, 1st exp (12-14-18), Bedaquiline 0.1 μM, 60 min, read-out: % activity): 84.3%
Cyanide sensitive (Human Mito, 1st exp (12-14-18), Bedaquiline 0.2 μM, 60 min): 4.027 nmol/min/mg
activity at 0.2 µM (Human Mito, 1st exp (12-14-18), Bedaquiline 0.2 μM, 60 min, read-out: % activity): 55.4%
Cyanide sensitive (Human Mito, 1st exp (12-14-18), Bedaquiline 0.5 μM, 60 min): 2.18 nmol/min/mg
activity at 0.5 µM (Human Mito, 1st exp (12-14-18), Bedaquiline 0.5 μM, 60 min, read-out: % activity): 30%
Cyanide sensitive (Human Mito, 1st exp (12-14-18), Bedaquiline 0.65 μM, 60 min): -0.9359 nmol/min/mg
activity at 0.65 µM (Human Mito, 1st exp (12-14-18), Bedaquiline 0.65 μM, 60 min, read-out: % activity): -12.9%
Cyanide sensitive (Human Mito, 1st exp (12-14-18), Bedaquiline 0.85 μM, 60 min): -0.002656 nmol/min/mg
activity at 0.85 µM (Human Mito, 1st exp (12-14-18), Bedaquiline 0.85 μM, 60 min, read-out: % activity): -0.0365%
Cyanide sensitive (Human Mito, 1st exp (12-14-18), Bedaquiline 2 μM, 60 min): -1.2927 nmol/min/mg
activity at 2 µM (Human Mito, 1st exp (12-14-18), Bedaquiline 2 μM, 60 min, read-out: % activity): -17.8%
Cyanide sensitive (Human Mito, 1st exp (12-14-18), Bedaquiline 5 μM, 60 min): -0.5097 nmol/min/mg
activity at 5 µM (Human Mito, 1st exp (12-14-18), Bedaquiline 5 μM, 60 min, read-out: % activity): -7.01%
activity at 0.1 µM (Human Mito, 1st exp (18_12_14), BDQ 0.1 uM, read-out: Cyanide sensitive % activity): 73.2%
activity at 0.2 µM (Human Mito, 1st exp (18_12_14), BDQ 0.2 uM, read-out: Cyanide sensitive % activity): 57.7%
activity at 0.5 µM (Human Mito, 1st exp (18_12_14), BDQ 0.5 uM, read-out: Cyanide sensitive % activity): 44%
activity at 0.85 µM (Human Mito, 1st exp (18_12_14), BDQ 0.85 uM, read-out: Cyanide sensitive % activity): 16.6%
activity at 2 µM (Human Mito, 1st exp (18_12_14), BDQ 2 uM, read-out: Cyanide sensitive % activity): -8.33%
Cyanide sensitive [11]: 3.788 nmol/min/mg
activity at 0.05 µM [11]: 43.8%
Cyanide sensitive (Human Mito, 2nd exp (12-17-18), Bedaquiline 0.1 μM, 60 min): 5.369 nmol/min/mg
activity at 0.1 µM (Human Mito, 2nd exp (12-17-18), Bedaquiline 0.1 μM, 60 min, read-out: % activity): 62%
